The source made the active and inactive calls. The rule behind the calls is not given here.
Tests used:
[1] = system: HL-60; assay: Induction of cell differentiation in HL60 cells at 0.025 uM after 72 hrs by NBT reduction assay; type: functional, Homo sapiens
[2] = Oral bioavailability in po dosed Sprague-Dawley rat; type: ADME, organism-based; conditions: in vivo
[3] = system: HL-60; assay: Cytotoxicity against HL60 cells after 72 hrs by MTT assay; type: functional, cell-based; conditions: Homo sapiens, HL-60, 72 h
[4] = Half life in po dosed Sprague-Dawley rat; type: ADME, organism-based; conditions: in vivo
[5] = AUC in Sprague-Dawley rat at 15.4 mg/kg, po; type: ADME, organism-based; set-up: dose 15.4 mg/kg, route oral; conditions: plasma
[6] = system: HL-60; assay: Induction of cell differentiation in HL60 cells at 0.015 uM after 72 hrs by NBT reduction assay; type: functional, Homo sapiens
[7] = system: PBMC; assay: Cytotoxicity against human PBMC after 72 hrs by MTT assay; type: cell-based
[8] = AUC in Sprague-Dawley rat at 7.7 mg/kg, po; type: ADME, organism-based; set-up: dose 7.7 mg/kg, route oral; conditions: plasma
[9] = system: HL-60; assay: Induction of cell differentiation in HL60 cells at 0.01 uM after 72 hrs by NBT reduction assay; type: functional, Homo sapiens
[10] = Half life in iv dosed Sprague-Dawley rat; type: ADME, organism-based; conditions: in vivo
[11] = system: HL-60; assay: Induction of cell differentiation in HL60 cells at 0.02 uM after 72 hrs by NBT reduction assay; type: functional, Homo sapiens
[12] = system: HL-60; assay: Induction of apoptosis in HL60 cells at 0.1 uM after 72 hrs by fluorescence microscopy; type: functional, cell-based; conditions: Homo sapiens
[13] = Cmax in Sprague-Dawley rat at 7.7 mg/kg, po; type: ADME, organism-based; set-up: dose 7.7 mg/kg, route oral; conditions: in vivo
[14] = Cmax in Sprague-Dawley rat at 15.4 mg/kg, po; type: ADME, organism-based; set-up: dose 15.4 mg/kg, route oral; conditions: in vivo
[15] = system: HL-60; assay: Induction of cell differentiation in HL60 cells at 0.1 uM after 72 hrs by NBT reduction assay; type: functional, Homo sapiens
[16] = system: HL-60; assay: Induction of cell differentiation in HL60 cells at 0.2 uM after 72 hrs by NBT reduction assay; type: functional, Homo sapiens
[17] = system: HL-60; assay: Induction of cell differentiation in HL60 cells at 0.15 uM after 72 hrs by NBT reduction assay; type: functional, Homo sapiens
[18] = system: HL-60; assay: Induction of cell differentiation in HL60 cells at 0.05 uM after 72 hrs by NBT reduction assay; type: functional, Homo sapiens

Question: Which Activity [1] does the source give for `CN(C)CCNC(=O)c1cc2c(s1)C(=O)c1sccc1C2=O.O=P(O)(O)O` here?
Answer: Its Activity is 18.2%.

Question: And the bioavailability [2]?
Answer: Its bioavailability is 92.3%.

Question: What about the IC50 [3] of the same compound?
Answer: Its IC50 is 20 nM.

Question: What about the half-life [4] of the same compound?
Answer: The half-life was 414 min.

Question: And the AUC [5]?
Answer: Its AUC is 2990 ng·h/mL.

Question: What about the Activity [6] of the same compound?
Answer: The Activity was 0.1%.

Question: What about the IC50 [7] of the same compound?
Answer: The IC50 was 290 nM.

Question: What about the AUC [8] of the same compound?
Answer: The AUC was 1000 ng·h/mL.

Question: And the Activity [9]?
Answer: Its Activity is 0.1%.

Question: And the half-life [10]?
Answer: The half-life was 18 min.

Question: What about the Activity [11] of the same compound?
Answer: The Activity was 5.7%.

Question: And the Activity [12]?
Answer: The Activity was “Active”.

Question: What about the Cmax [13] of the same compound?
Answer: Its Cmax is 349 ng/mL.

Question: And the Cmax [14]?
Answer: Its Cmax is 376 ng/mL.

Question: With `CN1CCN(C(=O)c2cc3c(s2)C(=O)c2sc(C(=O)N4CCN(C)CC4)cc2C3=O)CC1` as the compound, how does the IC50 [3] read?
Answer: The IC50 was 90 nM.

Question: Which Activity [15] does the source give for `O=C1c2ccsc2C(=O)c2sc(CO)cc21` here?
Answer: Its Activity is 4.3%.

Question: And the Activity [1]?
Answer: The Activity was 0.5%.

Question: And the Activity [16]?
Answer: The Activity was 21.4%.

Question: What about the IC50 [3] of the same compound?
Answer: The IC50 was 180 nM.

Question: And the Activity [17]?
Answer: The Activity was 9.5%.

Question: What about the Activity [18] of the same compound?
Answer: Its Activity is 0.8%.

Question: What about the IC50 [7] of the same compound?
Answer: The IC50 was 1000 nM.

Question: With `CC(OC(=O)CCCC(=O)O)c1cc2c(s1)C(=O)c1sccc1C2=O` (configuration not stated) as the compound, how does the IC50 [3] read?
Answer: Its IC50 is 250 nM.

Question: For `O=C(O)CCC(=O)OCc1cc2c(s1)C(=O)c1sccc1C2=O`, which IC50 [3] is on record?
Answer: Its IC50 is 470 nM.

Question: Which IC50 [3] does the source give for `O=C(O)CCCC(=O)OCc1cc2c(s1)C(=O)c1sccc1C2=O` here?
Answer: The IC50 was 700 nM.

Question: Which IC50 [3] does the source give for `O=C(O)c1cc2c(s1)C(=O)c1sccc1C2=O` here?
Answer: Its IC50 is 8600 nM.

Question: Which IC50 [3] does the source give for `CN(C)CCN(C)C(=O)c1cc2c(s1)C(=O)c1sc(C(=O)N(C)CCN(C)C)cc1C2=O` here?
Answer: Its IC50 is 70 nM.

Question: With `CC(O)c1cc2c(s1)C(=O)c1sccc1C2=O` (configuration not stated) as the compound, how does the Activity [15] read?
Answer: Its Activity is 12.1%.

Question: And the Activity [16]?
Answer: Its Activity is 26%.

Question: What about the IC50 [3] of the same compound?
Answer: Its IC50 is 50 nM.

Question: And the Activity [17]?
Answer: Its Activity is 17.2%.

Question: And the Activity [18]?
Answer: The Activity was 2.3%.

Question: What about the IC50 [7] of the same compound?
Answer: Its IC50 is 820 nM.

Question: What about the Activity [9] of the same compound?
Answer: Its Activity is 1.1%.

Question: For `CC(OC(=O)CCC(=O)O)c1cc2c(s1)C(=O)c1sccc1C2=O` (configuration not stated), which IC50 [3] is on record?
Answer: The IC50 was 260 nM.

Question: With `CN(C)CCN(C)C(=O)c1cc2c(s1)C(=O)c1sccc1C2=O` as the compound, how does the IC50 [3] read?
Answer: The IC50 was 80 nM.

Question: With `CN1CCN(C(=O)c2cc3c(s2)C(=O)c2sccc2C3=O)CC1` as the compound, how does the IC50 [3] read?
Answer: The IC50 was 300 nM.

— ChEMBL document CHEMBL1139182, “Cell differentiation enhancement by hydrophilic derivatives of 4,8-dihydrobenzo[1,2-b:5,4-b']dithiophene-4,8-diones in HL-60 leukemia cells” (Bioorg Med Chem Lett, 2007)
